Assay results reported in US20260242330A1, “USE OF AN AMANTADINE MONONITRATE COMPOUND IN MANUFACTURE OF A MEDICAMENT FOR THE PREVENTION AND TREATMENT OF HYPERTENSION” (GUANGZHOU MAGPIE PHARMACEUTICALS CO., LTD., priority 2022, published 2026).

Tests used:
[1] = tested on: blood pressure of subjects; test: Effect of multiple administrations of MN-08 on blood pressure of subjects (7 days); type: in vivo, human; conditions: for DP / SP: Subject 14; for DP: baseline 84 mmHg; for SP: baseline 122 mmHg
From the text: All subjects in the following embodiments have signed informed consent forms, which comply with medical ethics regulations. According to the relevant provisions of Chinese Guidelines for the Prevention and Treatment of Hypertension (2018 Revision), the values measured for hypertension are the average blood pressure measured three times on a different day without the use of antihypertensive drugs. Therefore, in this embodiment, the baseline blood pressure of the subjects before administration is set as the average blood pressure measured at three different times: screening period, occupancy period, and 1 hour before administration, as shown in Tables 1 to 3.
Multiple dosing trials: Participants in each dose group fasted for at least 10 hours before administration, without water deprivation overnight. Each group of subjects received oral administration of the test drug on an empty stomach from day 1 to day 6, twice a day (with an interval of 12 hours and at least 1 hour on an empty stomach before the second administration), and only once in the morning on day 7. A total of 13 doses were administered. The first administration time every day is around 8 am, taken with 240 mL of water. Taking subject 14 as an example, the effect of multiple doses of MN-08 (7 days) on subject blood pressure was investigated.

[2] = tested on: blood pressure in subjects with a DP≥90 mmHg; test: Effect of MN-08 on blood pressure in subjects with a DP≥90 mmHg; type: in vivo, human; conditions: single or multiple administration as in Example 2
From the text: From this, it can be seen that making diastolic pressure drop more than systolic pressure drop is the characteristic of MN-08.

[3] = 12 mg twice a day, D 1, 2 hrs after 2nd adm.
[4] = 12 mg twice a day, D 1, 4 hrs after 1st adm.
[5] = 12 mg twice a day, D 1, 8 hrs after 1st adm.
[6] = 12 mg twice a day, D 2, 2 hrs after 2nd adm.
[7] = 12 mg twice a day, D 2, 4 hrs after 1st adm.
[8] = 12 mg twice a day, D 2, 8 hrs after 1st adm.
[9] = 12 mg twice a day, D 3, 2 hrs after 2nd adm.
[10] = 12 mg twice a day, D 3, 4 hrs after 1st adm.
[11] = 12 mg twice a day, D 3, 8 hrs after 1st adm.
[12] = 12 mg twice a day, D 4, 2 hrs after 2nd adm.
[13] = 12 mg twice a day, D 4, 4 hrs after 1st adm.
[14] = 12 mg twice a day, D 4, 8 hrs after 1st adm.
[15] = 12 mg twice a day, D 5, 2 hrs after 2nd adm.
[16] = 12 mg twice a day, D 5, 4 hrs after 1st adm.
[17] = 12 mg twice a day, D 5, 8 hrs after 1st adm.
[18] = 12 mg twice a day, D 6, 2 hrs after 2nd adm.
[19] = 12 mg twice a day, D 6, 4 hrs after 1st adm.
[20] = 12 mg twice a day, D 6, 8 hrs after 1st adm.
[21] = 12 mg, once on D 7 after 6 days twice a day, D 7, 4 hrs after adm.
[22] = 12 mg, once on D 7 after 6 days twice a day, D 7, 8 hrs after adm.
[23] = 12 mg, once on D 7 after 6 days twice a day, D 7, 12 hrs after adm.

CCC12CC3CC(N)(C1)CC(CO[N+](=O)[O-])(C3)C2 (centres unmarked) [MN-08]
DP [1, 3]: 73 mmHg | SP [1, 3]: 113 mmHg | DP [1, 4]: 81 mmHg | SP [1, 4]: 122 mmHg | DP [1, 5]: 74 mmHg | SP [1, 5]: 114 mmHg | DP [1, 6]: 77 mmHg | SP [1, 6]: 107 mmHg | DP [1, 7]: 76 mmHg | SP [1, 7]: 115 mmHg | DP [1, 8]: 68 mmHg | SP [1, 8]: 117 mmHg | DP [1, 9]: 73 mmHg | SP [1, 9]: 109 mmHg | DP [1, 10]: 74 mmHg | SP [1, 10]: 114 mmHg | DP [1, 11]: 82 mmHg | SP [1, 11]: 111 mmHg | DP [1, 12]: 73 mmHg | SP [1, 12]: 109 mmHg | DP [1, 13]: 73 mmHg | SP [1, 13]: 109 mmHg | DP [1, 14]: 70 mmHg | SP [1, 14]: 107 mmHg | DP [1, 15]: 74 mmHg | SP [1, 15]: 114 mmHg | DP [1, 16]: 69 mmHg | SP [1, 16]: 106 mmHg | DP [1, 17]: 62 mmHg | SP [1, 17]: 97 mmHg | DP [1, 18]: 77 mmHg | SP [1, 18]: 125 mmHg | DP [1, 19]: 77 mmHg | SP [1, 19]: 118 mmHg | DP [1, 20]: 63 mmHg | SP [1, 20]: 112 mmHg | DP [1, 21]: 77 mmHg | SP [1, 21]: 108 mmHg | DP [1, 22]: 62 mmHg | SP [1, 22]: 102 mmHg | DP [1, 23]: 62 mmHg | SP [1, 23]: 103 mmHg | both systolic and diastolic pressure of the subjects ([1]; twice a day for 7 days, decrease in diastolic greater than in systolic pressure): reduced | effect on diastolic pressure [2]: significant effect on reducing diastolic pressure
